Values joined by “and” are separate entries in the source; they are usually repeats but may differ in a detail not shown here. Equal values may be shown once.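 Five compound concentrations were applied to cells in 96-well plates for 48 hours; endpoints were derived by simple linear interpolation of the resulting dose-response curve. GI50 is the concentration that inhibits growth by half. The concentration for full growth arrest is given as TGI.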
Experiments:
Assay in all cases: NCI tumour cell line growth inhibition, 48 h
[1] = test system: UACC-257 melanoma
[2] = test system: CAKI-1 renal
[3] = test system: NCI-H522 lung
[4] = test system: A549 NSCLC
[5] = test system: IGROV1 ovarian
[6] = test system: COLO 205 colon
[7] = test system: M14 melanoma
[8] = test system: HCT-15 colon
[9] = test system: T-47D breast
[10] = test system: 786-0 renal

| SMILES | GI50 [1] | TGI [1] | GI50 [2] | TGI [2] | GI50 [3] [µM] | TGI [3] [µM] | GI50 [4] | TGI [4] | GI50 [5] | TGI [5] [µM] | GI50 [6] | TGI [6] [µM] | GI50 [7] | TGI [7] [µM] | GI50 [8] | TGI [8] | GI50 [9] | TGI [9] | GI50 [10] | TGI [10] [µM] |
| --- | --- | --- | --- | --- | --- | --- | --- | --- | --- | --- | --- | --- | --- | --- | --- | --- | --- | --- | --- | --- |
| Cc1cc(Cl)ccc1Nc1nc(C(F)(F)F)ccc1C(=O)N/N=C/c1ccc(Cl)cc1 | 3.67 µM | 16.3 µM | 1.25 µM | 3.85 µM | 2.23 | 7.96 | 3.02 µM | 27.9 µM | 3.31 µM | 13.6 | 1.63 µM | 3.37 | 2.34 µM | 7.63 | 0.895 µM | 13.1 µM | 2.17 µM | 9.26 µM | 2.04 µM | 5.74 |
| CCCCC[C@H]1C/C=C2/C(=O)C=C[C@@H]2C/C=C\CCCC(=O)O[C@@H](CCCCC)C/C=C2/C(=O)C=C[C@@H]2C/C=C\CCCC(=O)O1 | 0.531 µM | 1.3 µM | – | – | 0.16 | 0.655 | 0.528 µM | 1.35 µM | 0.123 µM | 0.596 | 0.25 µM | 0.671 | 0.273 µM | 1.01 | 0.428 µM | 1.01 µM | 0.236 µM | 0.819 µM | 0.41 µM | 0.811 |
| CCC1CN2C(=N1)c1ccccc1-c1cc(Cl)ccc12 (stereo not given) | 2.96 µM | 10.3 µM | 4.32 µM | 46.7 µM | 2.58 | 8.19 | 2.24 µM | 15.6 µM | 2.29 µM | 15.1 | 3.21 µM | 12.6 | 3.13 µM | 10.4 | 2.86 µM | 11.5 µM | 3.52 µM | 23 µM | 3.32 µM | 13 |
| CNCCCn1c2c(c3ccc([N+](=O)[O-])cc3c1=O)C(=O)c1cc(OC)cnc1-2 | 0.175 µM | 0.953 µM | 0.0346 µM | 0.342 µM | 0.0838 | 0.464 | 0.0696 µM | 0.359 µM | 0.205 µM | 2 | 0.0569 µM | 0.636 | 0.0394 µM | 0.358 | 0.119 µM | 0.714 µM | 0.0309 µM | 0.283 µM | 0.0362 µM | 0.189 |
| O=C1c2cccc(NCCN=Cc3cc([N+](=O)[O-])ccc3O)c2C(=O)c2c(NCCN=Cc3cc([N+](=O)[O-])ccc3O)cccc21 | > 100 µM | > 100 µM | – | – | 4.07 | > 100 | 3.89 µM | > 100 µM | 2.62 µM | > 100 | 1.78 µM | 20.2 | 26.8 µM | > 100 | 30.3 µM | > 100 µM | 9.38 µM | > 100 µM | 7.04 µM | > 100 |
| COc1ccc2c(c1)nnn1c3ncccc3c(N=O)c21 | 8.21 µM and 2.62 µM | 30.8 µM and 13.6 µM | 0.0892 µM and 0.202 µM | 0.359 µM and 1.59 µM | 1.25 | 6.49 | 10.8 µM and 3.87 µM | 50 µM and 15.7 µM | 0.114 µM and 1.09 µM | – | 0.681 µM and 1.22 µM | 2.74 | 1.57 µM and 3.44 µM | – | 3.13 µM and 2.31 µM | 50 µM and 11.8 µM | 0.162 µM and 0.515 µM | 2.36 µM and 7.9 µM | 0.334 µM and 2.38 µM | – |
| O=CN/C=C/c1cccc(O)c1 | – | > 89.2 µM | – | > 79.7 µM | – | 65.4 | – | 79.7 µM | – | > 88.2 | – | > 100 | – | > 88.2 | – | > 100 µM | – | 98.7 µM | – | 83.7 |
| CCN(Cc1ccc(F)cc1)c1ccc(CO)c(F)c1 | 2.33 µM | 9.29 µM | 3.74 µM | 36.4 µM | 14.1 | 35.8 | 10.5 µM | > 66.1 µM | 1.26 µM | 5.03 | 10.8 µM | 27.6 | 20.4 µM | > 67.5 | 10.4 µM | > 88.1 µM | 1.35 µM | 8.31 µM | 12.6 µM | 36.6 |
| O=S(=O)(Nc1ccc(Br)c(Cl)c1)c1ccc(-c2cnc(C3CC3)o2)cc1 | 2.08 µM | 25.9 µM | 0.431 µM | 16.4 µM | 0.262 | 10.7 | 0.789 µM | 18.3 µM | 0.577 µM | 14.8 | 0.765 µM | 11.3 | 0.458 µM | 14.1 | 0.445 µM | 13.7 µM | 0.437 µM | 21.1 µM | 0.574 µM | 17.9 |
| O=C(N/C(=C/c1ccc(Cl)cc1Cl)c1nc2ccccc2s1)c1ccccc1 | – | 31.6 µM | – | 30 µM | – | 24.7 | – | 53.8 µM | – | 26.2 | – | 37.2 | – | 37.6 | – | 13.3 µM | – | 43.3 µM | – | 35.4 |
| CCOC(=O)c1cc2c(n1Cc1cccc(OC)c1)-c1oncc1CCC2 | 3.51 µM | > 100 µM | 2.12 µM | > 100 µM | 0.222 | 0.704 | 0.915 µM | > 100 µM | 0.968 µM | > 100 | 0.78 µM | 23.8 | 0.693 µM | > 100 | 0.473 µM | > 100 µM | 1.27 µM | > 100 µM | 6.65 µM | > 100 |
| Cc1ccc(-c2nc(C#N)c(S(=O)(=O)n3nc(C)cc3N)o2)cc1 | 16.5 µM | 30.1 µM | 4.3 µM | 14.2 µM | 1.65 | 3.58 | 19.6 µM | 39.8 µM | 2.99 µM | 8.28 | 2.15 µM | 4.19 | 3.35 µM | 14.4 | 1.9 µM | 3.72 µM | 2.27 µM | 5.76 µM | 2.35 µM | 6.35 |
| O=C(O)c1cc2ccc3ccccc3c2oc1=O | – | > 100 µM | – | – | – | > 100 | – | > 100 µM | – | > 100 | – | > 100 | – | > 100 | – | > 100 µM | – | > 100 µM | – | > 100 |
| CC(=O)OC[C@]12CC[C@@H](C(=O)CBr)[C@@H]1[C@H]1CC[C@@H]3[C@@]4(C)CCCNC(C)(C)[C@@H]4CC[C@@]3(C)[C@]1(C)CC2 | 9.2 µM | 23.1 µM | 1.81 µM | 4.13 µM | 2.06 | 4.6 | 14.5 µM | 31.9 µM | 1.83 µM | 3.76 | 3.92 µM | 17.2 | 2.38 µM | 6.66 | 1.65 µM | 3.52 µM | 2.31 µM | 6.92 µM | 1.65 µM | 3.27 |
| CC1CC2OC(=O)C(C)C2CC2(C)C(OC3OC(CO)C(O)C(O)C3O)OCCC12 (stereo not given) | – | > 100 µM | – | > 100 µM | – | > 100 | – | > 100 µM | – | > 100 | – | > 100 | – | > 100 | – | > 100 µM | – | > 100 µM | – | > 100 |
| COc1ccc(-c2nc(-c3ccccc3)c(-c3ccccc3)[nH]2)cc1OC1CCCC1 | > 100 µM | > 100 µM | 88 µM | > 100 µM | 6.11 | > 100 | > 100 µM | > 100 µM | > 100 µM | > 100 | > 100 µM | > 100 | > 100 µM | > 100 | 13.2 µM | > 100 µM | 34.9 µM | > 100 µM | > 100 µM | > 100 |
| COc1cc2c3c(n(CCCCN)c(=O)c2cc1OC)-c1cc2c(cc1C3=O)OCO2 | 3.35 µM | 25 µM | 0.656 µM | 4.12 µM | 0.259 | 9.89 | 1.06 µM | 11.9 µM | 1.14 µM | 5.08 | 1.04 µM | 6.17 | 1.36 µM | 6.22 | 0.805 µM | 9.81 µM | 1.22 µM | 10.3 µM | 0.172 µM | 0.889 |
| COC(=O)c1ccccc1OCc1cc(=O)oc2ccc(C)cc12 | – | > 100 µM | – | > 100 µM | – | 48.6 | – | > 100 µM | – | > 100 | – | > 100 | – | > 100 | – | > 100 µM | – | > 100 µM | – | > 100 |
| COc1cccc2c1ccc1nc3cccc(C(=O)N[C@H](C)CN(C)C)c3nc12 | 0.16 µM | 0.659 µM | – | – | 0.0579 | 0.279 | 0.0402 µM | 1.99 µM | 0.0549 µM | 11.9 | 0.0646 µM | 0.282 | 0.138 µM | 0.339 | 0.053 µM | 10.8 µM | 0.159 µM | 0.974 µM | 0.0887 µM | 2.44 |
| NC(=O)c1ccccc1Nc1ccc2nnc(-c3ccncc3)n2n1 | – | – | 2.45 µM | 6.42 µM | 4.46 | 18 | – | – | 2.23 µM | 5.41 | 11.6 µM | 26.7 | 11.1 µM | 26.5 | 5.48 µM | 22.4 µM | 4.69 µM | 20.3 µM | 10.8 µM | 23.1 |
| COc1c(O)cc2oc(-c3ccc(O)cc3)cc(=O)c2c1O | – | > 100 µM | – | – | – | > 100 | – | > 100 µM | – | 76.9 | – | > 100 | – | > 100 | – | > 100 µM | – | > 100 µM | – | > 100 |

Source: PubChem BioAssay (NCI)
